Assay results published in US20180237713A1, “Ionic Liquid, Lubricant, and Magnetic Recording Medium” (priority 2015, published 2018).

Columns and labels:
[1] = Thermal stability measurement (TG/DTA weight reduction temperature); settings: for Weight reduction temperature 5% / Weight reduction temperature 10% / Weight reduction temperature 20%: TG/DTA, air 200 mL/min, 10° C./min, 30° C. to 600° C.; for 5%, 10%, 20% weight reduction temperatures (thermal stability) higher than perfluoropolyether Z-DOL (Comparative Example 11C) by: difference to Z-DOL; for 5%, 10%, 20% weight reduction temperatures (thermal stability) higher than Z-TETRAOL (Comparative Example 12C) by: difference to Z-TETRAOL; for Thermal stability improved compared with perfluoropolyether Z-DOL or Z-TETRAOL by: difference to Z-DOL or Z-TETRAOL
[2] = Solubility test of ionic liquid in fluorine-based solvent VERTREL XF; settings: for Solubility to fluorine-based solvent: VERTREL XF [CF3(CHF)2CF2CF3], 25° C., ultrasonic 5 minutes, left 1 day, visual; for Dissolved or not in fluorine-based solvent: VERTREL XF
Protocol: A solubility test was performed on the ionic liquid synthesized each of Examples and each of Comparative Examples using VERTREL XF [CF3(CHF)2CF2CF3] available from Du Pont-Mitsui Fluorochemicals Company, Ltd. as a fluorine-based solvent.
The ionic liquid was added to the predetermined mass of VERTREL XF.
Specifically, 0.5 parts by mass or 0.1 parts by mass of each ionic liquid was added to 100 parts by mass of VERTREL XF (25° C.).
Note that, a case where the mixture was visually observed to be transparent, the ionic liquid was judged as being dissolved. A case where the mixture was not transparent or insoluble matter was observed, the ionic liquid was judged as not being dissolved (insoluble).
The ionic liquid was dissolved when 0.5 parts by mass of the ionic liquid was added.
The ionic liquid was not dissolved when 0.5 parts by mass of the ionic liquid was added, but the ionic liquid was dissolved when 0.1 parts by mass of the ionic liquid was added.
The ionic liquid was not dissolved both when 0.5 parts by mass of the ionic liquid was added and when 0.1 parts by mass of the ionic liquid was added.

## heptadecafluorooctanesulfonic acid-6-octadecyl-1,8-diazabicyclo[5.4.0]-7-undecenium
[1]
  Thermal stability compared to perfluoropolyether Z-DOL or Z-TETRAOL: high
  Weight reduction temperature 5%: 361.9 °C
  Weight reduction temperature 10%: 382.7 °C
  Weight reduction temperature 20%: 403.5 °C

## CCCCCCCCCCCCCCCCCC[N+]1=C2CCCCCN2CCC1.O=S(=O)([O-])C(F)(F)F
[1]
  Weight reduction temperature 5%: 319.2 °C
  Weight reduction temperature 10%: 346.6 °C
  Weight reduction temperature 20%: 389.0 °C
  5%, 10%, 20% weight reduction temperatures (thermal stability) higher than perfluoropolyether Z-DOL (Comparative Example 11C) by: ≥ 140 °C
  5%, 10%, 20% weight reduction temperatures (thermal stability) higher than Z-TETRAOL (Comparative Example 12C) by: ≥ 80 °C

## CCCCCCCCCCCCCCCCCCn1cc[n+](CCC[n+]2ccn(CCCCCCCCCCCCCCCCCC)c2)c1.O=S(=O)([N-]S(=O)(=O)C(F)(F)C(F)(F)C(F)(F)C(F)(F)F)C(F)(F)C(F)(F)C(F)(F)C(F)(F)F.O=S(=O)([N-]S(=O)(=O)C(F)(F)C(F)(F)C(F)(F)C(F)(F)F)C(F)(F)C(F)(F)C(F)(F)C(F)(F)F [Ex. 11A]
[2]
  Solubility to fluorine-based solvent: 0.5% by mass or greater

## C[n+]1ccn(CCC(F)(F)C(F)(F)C(F)(F)C(F)(F)C(F)(F)C(F)(F)C(F)(F)C(F)(F)F)c1.O=S(=O)([N-]S(=O)(=O)C(F)(F)C(F)(F)C(F)(F)C(F)(F)F)C(F)(F)C(F)(F)C(F)(F)C(F)(F)F [Ex. 9A, bis(nonafluorobutanesulfonyl)imide-1-1′H,1′H,2′H,2′H-heptadecafluorodecyl-3-methylimidazolium]
[2]
  Solubility to fluorine-based solvent: 0.5% by mass or greater
[2]; listed as Example 9A
  Solubility to fluorine-based solvent: ≥ 0.5 % by mass
[1]
  Weight reduction temperature 5%: 350.3 °C
  Weight reduction temperature 10%: 365.5 °C
  Weight reduction temperature 20%: 381.3 °C

## CCCCCCCCCCCCCCCCCCn1cc[n+](CCC[n+]2ccn(CCCCCCCCCCCCCCCCCC)c2)c1.O=S(=O)([N-]S(=O)(=O)C(F)(F)C(F)(F)C(F)(F)C(F)(F)F)C(F)(F)C(F)(F)C(F)(F)C(F)(F)F.O=S(=O)([N-]S(=O)(=O)C(F)(F)C(F)(F)C(F)(F)C(F)(F)F)C(F)(F)C(F)(F)C(F)(F)C(F)(F)F
[1]
  Weight reduction temperature 5%: 352.3 °C
  Weight reduction temperature 10%: 381.9 °C
  Weight reduction temperature 20%: 401.4 °C

## heptadecafluorooctanesulfonic acid-7-octadecyl-1,5,7-triazabicyclo[4.4.0]-5-decenium [Comp. Ex. 5A, reference compound]
[2]
  Dissolved or not in fluorine-based solvent: not dissolved
  Solubility to fluorine-based solvent: less than 0.1% by mass

## CCCCCCCCCCCCCCCCCCn1cc[n+](CCCCC[n+]2ccn(CCCCCCCCCCCCCCCCCC)c2)c1.O=S(=O)([N-]S(=O)(=O)C(F)(F)C(F)(F)C(F)(F)C(F)(F)F)C(F)(F)C(F)(F)C(F)(F)C(F)(F)F.O=S(=O)([N-]S(=O)(=O)C(F)(F)C(F)(F)C(F)(F)C(F)(F)F)C(F)(F)C(F)(F)C(F)(F)C(F)(F)F
[1]
  Weight reduction temperature 5%: 360.1 °C
  Weight reduction temperature 10%: 384.4 °C
  Weight reduction temperature 20%: 402.0 °C
  5%, 10%, 20% weight reduction temperatures (thermal stability) higher than perfluoropolyether Z-DOL (Comparative Example 11C) by: ≥ 170 °C
  5%, 10%, 20% weight reduction temperatures (thermal stability) higher than Z-TETRAOL (Comparative Example 12C) by: ≥ 120 °C

## nonafluorobutanesulfonic acid-N-octadecylpyrrolidinium
[1]
  Weight reduction temperature 5%: 339.4 °C
  Weight reduction temperature 10%: 359.0 °C
  Weight reduction temperature 20%: 377.3 °C
  Thermal stability improved compared with perfluoropolyether Z-DOL or Z-TETRAOL by: ≥ 95 °C

## CCCCCCCCCCCCCCCCCC[n+]1ccn(CCCC)c1.O=S(=O)([N-]S(=O)(=O)C(F)(F)C(F)(F)C(F)(F)C(F)(F)F)C(F)(F)C(F)(F)C(F)(F)C(F)(F)F
[1]
  Thermal stability compared to perfluoropolyether Z-DOL or Z-TETRAOL: high

## heptadecafluorooctanesulfonic acid-6-octadecyl-1,8-diazabicyclo[5.4.0]-7-undecenium [Comp. Ex. 2A, reference compound]
[2]
  Solubility to fluorine-based solvent: less than 0.1% by mass

## CCCCCCCCCCCCCCCCCCN1CCCN2CCCN=C12.O=S1(=O)NS(=O)(=O)C(F)(F)C(F)(F)C1(F)F [Comp. Ex. 4A, hexafluorocyclopropane-1,3-bis(sulfonyl)imide-7-octadecyl-1,5,7-triazabicyclo[4.4.0]-5-decenium, reference compound]
[2]
  Dissolved or not in fluorine-based solvent: not dissolved
  Solubility to fluorine-based solvent: less than 0.1% by mass
[1]
  Weight reduction temperature 5%: 288.4 °C
  Weight reduction temperature 10%: 376.2 °C
  Weight reduction temperature 20%: 412.1 °C

## CCCCCCCCCCCCCCCCCCn1cc[n+](CCCCCCCCC[n+]2ccn(CCCCCCCCCCCCCCCCCC)c2)c1.O=S(=O)([N-]S(=O)(=O)C(F)(F)C(F)(F)C(F)(F)C(F)(F)F)C(F)(F)C(F)(F)C(F)(F)C(F)(F)F.O=S(=O)([N-]S(=O)(=O)C(F)(F)C(F)(F)C(F)(F)C(F)(F)F)C(F)(F)C(F)(F)C(F)(F)C(F)(F)F
[1]
  5%, 10%, 20% weight reduction temperatures (thermal stability) higher than perfluoropolyether Z-DOL (Comparative Example 11C) by: ≥ 170 °C
  5%, 10%, 20% weight reduction temperatures (thermal stability) higher than Z-TETRAOL (Comparative Example 12C) by: ≥ 110 °C

## tris(trifluoromethanesulfonyl)methide-6-octadecyl-1,8-diazabicyclo[5.4.0]-7-undecenium
[1]
  Thermal stability compared to perfluoropolyether Z-DOL or Z-TETRAOL: high
  Weight reduction temperature 5%: 354.9 °C
  Weight reduction temperature 10%: 385.0 °C
  Weight reduction temperature 20%: 404.3 °C

## nonafluorobutanesulfonic acid-N-octadecylpyrrolidinium [Ex. 6A]
[2]
  Dissolved or not in fluorine-based solvent: could be dissolved

## CCCCCCCCCCCCCCCCCC[n+]1ccn(CCC(F)(F)C(F)(F)C(F)(F)C(F)(F)C(F)(F)C(F)(F)C(F)(F)C(F)(F)F)c1.O=S(=O)([N-]S(=O)(=O)C(F)(F)C(F)(F)C(F)(F)C(F)(F)F)C(F)(F)C(F)(F)C(F)(F)C(F)(F)F
[1]
  5%, 10%, 20% weight reduction temperatures (thermal stability) higher than perfluoropolyether Z-DOL (Comparative Example 11C) by: ≥ 150 °C
  5%, 10%, 20% weight reduction temperatures (thermal stability) higher than Z-TETRAOL (Comparative Example 12C) by: ≥ 90 °C

## CCCCCCCCCCCCCCCCCCn1cc[n+](CCCCC[n+]2ccn(CCCCCCCCCCCCCCCCCC)c2)c1.O=S(=O)([N-]S(=O)(=O)C(F)(F)C(F)(F)C(F)(F)C(F)(F)F)C(F)(F)C(F)(F)C(F)(F)C(F)(F)F.O=S(=O)([N-]S(=O)(=O)C(F)(F)C(F)(F)C(F)(F)C(F)(F)F)C(F)(F)C(F)(F)C(F)(F)C(F)(F)F [Comp. Ex. 9A, 1,5-bis[bis(nonafluorobutanesulfonyl)imide-1-octadecylimidazolium]pentane, reference compound]
[2]
  Solubility to fluorine-based solvent: less than 0.1% by mass

## CCCCCCCCCCCCCCCCCCN1CCCC1.O=S1(=O)NS(=O)(=O)C(F)(F)C(F)(F)C1(F)F
[1]
  Thermal stability compared to perfluoropolyether Z-DOL or Z-TETRAOL: high

## C[n+]1ccn(CCC(F)(F)C(F)(F)C(F)(F)C(F)(F)C(F)(F)C(F)(F)C(F)(F)C(F)(F)F)c1.O=S(=O)([N-]S(=O)(=O)C(F)(F)C(F)(F)C(F)(F)C(F)(F)F)C(F)(F)C(F)(F)C(F)(F)C(F)(F)F
[1]
  5%, 10%, 20% weight reduction temperatures (thermal stability) higher than perfluoropolyether Z-DOL (Comparative Example 11C) by: ≥ 150 °C
  5%, 10%, 20% weight reduction temperatures (thermal stability) higher than Z-TETRAOL (Comparative Example 12C) by: ≥ 90 °C

## CCCCCCCCCCCCCCCCCC[N+]1(CCCC)CCCC1.O=S(=O)([N-]S(=O)(=O)C(F)(F)C(F)(F)C(F)(F)C(F)(F)F)C(F)(F)C(F)(F)C(F)(F)C(F)(F)F
[1]
  Thermal stability improved compared with perfluoropolyether Z-DOL or Z-TETRAOL by: ≥ 90 °C

## CCCCCCCCCCCCCCCCCCN1CCCN2CCCN=C12.O=S1(=O)NS(=O)(=O)C(F)(F)C(F)(F)C1(F)F
[1]
  Thermal stability compared to perfluoropolyether Z-DOL or Z-TETRAOL: high

## CCCCCCCCCCCCCCCCCCC1CCCCN2CCCN=C12.O=S(=O)(NS(=O)(=O)C(F)(F)C(F)(F)C(F)(F)C(F)(F)F)C(F)(F)C(F)(F)C(F)(F)C(F)(F)F
[1]
  Weight reduction temperature 5%: 352.9 °C
  Weight reduction temperature 10%: 378.2 °C
  Weight reduction temperature 20%: 396.7 °C
  5%, 10%, 20% weight reduction temperatures (thermal stability) higher than perfluoropolyether Z-DOL (Comparative Example 11C) by: ≥ 100 °C
  5%, 10%, 20% weight reduction temperatures (thermal stability) higher than Z-TETRAOL (Comparative Example 12C) by: ≥ 50 °C

## CCCCCCCCCCCCCCCCCC[N+]1=C2CCCCCN2CCC1.O=S(=O)([O-])C(F)(F)F [Ex. 7A, trifluoromethanesulfonic acid-8-octadecyl-1,8-diazabicyclo[5.4.0]-7-undecenium]
[2]
  Solubility to fluorine-based solvent: 0.5% by mass or greater
[2]; listed as Example 7A
  Solubility to fluorine-based solvent: ≥ 0.5 % by mass

## CCCCCCCCCCCCCCCCCCN1CCCC1.O=S(=O)(NS(=O)(=O)C(F)(F)C(F)(F)C(F)(F)C(F)(F)F)C(F)(F)C(F)(F)C(F)(F)C(F)(F)F
[1]
  Thermal stability improved compared with perfluoropolyether Z-DOL or Z-TETRAOL by: ≥ 70 °C

## heptadecafluorooctanesulfonic acid-7-octadecyl-1,5,7-triazabicyclo[4.4.0]-5-decenium
[1]
  Thermal stability compared to perfluoropolyether Z-DOL or Z-TETRAOL: high
  Weight reduction temperature 5%: 356.1 °C
  Weight reduction temperature 10%: 380.4 °C
  Weight reduction temperature 20%: 401.5 °C

## tris(trifluoromethanesulfonyl)methide-6-octadecyl-1,8-diazabicyclo[5.4.0]-7-undecenium [Comp. Ex. 3A, reference compound]
[2]
  Dissolved or not in fluorine-based solvent: not dissolved
  Solubility to fluorine-based solvent: less than 0.1% by mass

## CCCCCCCCCCCCCCCCCC[n+]1ccn(CCC(F)(F)C(F)(F)C(F)(F)C(F)(F)C(F)(F)C(F)(F)C(F)(F)C(F)(F)F)c1.O=S(=O)([N-]S(=O)(=O)C(F)(F)C(F)(F)C(F)(F)C(F)(F)F)C(F)(F)C(F)(F)C(F)(F)C(F)(F)F [Ex. 8A, bis(nonafluorobutanesulfonyl)imide-1-1′H,1′H,2′H,2′H-heptadecafluorodecyl-3-octadecylimidazolium]
[1]
  Weight reduction temperature 5%: 335.8 °C
  Weight reduction temperature 10%: 358.5 °C
  Weight reduction temperature 20%: 377.7 °C

## CCCCCCCCCCCCCCCCCCC1CCCCN2CCCN=C12.O=S1(=O)NS(=O)(=O)C(F)(F)C(F)(F)C1(F)F (stereo not drawn)
[1]
  Thermal stability compared to perfluoropolyether Z-DOL or Z-TETRAOL: high
